Experimental data from PMC10574351, “First-Row Transition Metal Complexes Incorporating the 2-(2′-pyridyl)quinoxaline Ligand (pqx), as Potent Inflammatory Mediators: Cytotoxic Properties and Biological Activities against the Platelet-Activating Factor (PAF) and Thrombin” (Molecules, 2023).
One block for each compound: values may come before it.

Legend:
[1] = Stability in DMSO monitored by UV-Vis spectroscopy; assay type: physicochemical; conditions: ambient temperature, monitored ~1 to 2 h
Method: The UV-Vis spectra of all complexes were recorded in DMSO at ambient temperature, immediately after dissolution, as this is the medium used for the biological assays. The UV-Vis spectrum of 1 will be included in a publication that follows. The relevant spectra of complexes 2, 3, 5 and 6 are shown below in Figure 6 and Figure 7, respectively, while that of complex 7 (concentrated solution) is included in Figure S9.
The UV-Vis absorption spectra of the light-yellow solutions of complexes 2, 3, 5 and 6 were monitored over a period of ~1 to 2 h (not shown) to ensure stability for the relevant biological assays. […] The electronic spectra of all complexes display four rather identical absorption bands in the range of 259–334 nm that can be attributed to π → π* and n → π* or charge-transfer transitions. These bands display medium to weak molar extinction coefficients and are in the expected region for similar complexes. For the cobalt(II) complex 2, the very low intensity and rather broad absorption, centered at ~680 nm can be attributed to d-d transitions. Also for the copper(II) complex 3, the broad absorption band in the range of 660–870 nm, is attributed to d-d transition.

[2] = system: human lymphocytes cultures; assay: Toxicity in healthy cells (human lymphocytes cultures); assay type: cell-based
[3] = system: dithiothreitol-insensitive PAF choline phosphotransferase (PAF-CPT); assay: PAF-CPT activity assay on leukocyte homogenate; assay type: biochemical; conditions: rabbit leukocyte homogenate; Figure 8
Method: (§1) The experiment on the inhibitory effect of each compound of interest against the washed rabbit platelets (WRPs) aggregation was carried out as per the already described method. The platelets were from male New Zealand white rabbits (about 20), individually housed in stainless steel cages in an air-conditioned room (19 ± 1 °C, 55 ± 5% humidity on a 12/12 h artificial light/dark cycle). Blood samples were drawn from the main ear artery. Microliters of PAF in a final concentration of about 10^–10 M were added to the cuvette of the aggregometer, and the height of the platelet aggregation was monitored. […] Dithiothreitol-insensitive PAF choline phosphotransferase, lyso-PAF:acetyl-CoA acetyltransferase and PAF-acetylhydrolase activity assays were performed on the homogenates of rabbit leukocytes while the activity of lipoprotein-associated phospholipase A2 was assessed on plasma as previously described. […] All results were expressed as mean ± standard deviation (SD). […] Data were analyzed using a statistical software package (SPSS for Windows, 16.0, 2007, SPSS Inc., Chicago, IL, USA) and Microsoft Excel 2007. […]

[4] = system: lyso-PAF:acetyl-CoA acetyltransferase (lyso-PAF-AT); assay: Lyso PAF-AT activity assay on leukocyte homogenate; assay type: biochemical; conditions: rabbit leukocyte homogenate; Figure 9
Method: as §1
The extraction, purification, and determination of the produced in each assay PAF was carried out as previously described. […] PAF bands were scrapped off, and extracted and the amount of PAF was determined by the washed rabbit platelet aggregation assay. […]

Compound: CS(C)=O.[Cl][Cu][Cl].c1ccc(-c2cnc3ccccc3n2)nc1 [Complex 3, [Cu(pqx)Cl2(DMSO)]]
stability of UV-Vis absorption spectra in DMSO [1]: not modified over time

Compound: [Cl][Zn][Cl].c1ccc(-c2cnc3ccccc3n2)nc1 [Complex 4, [Zn(pqx)Cl2]]
toxicity in healthy cells [2]: almost inactive (non-toxic)

Compound: [Co(pqx)Cl2(DMF)] [Complex 2]
stability of UV-Vis absorption spectra in DMSO [1]: not modified over time

Compound: [Fe(pqx)Cl2]2 [Complex 6]
inhibition of the specific activity of PAF-CPT [3]: inhibit, in a dose-dependent way | stability of UV-Vis absorption spectra in DMSO [1]: not modified over time

Compound: [Mn(pqx)(H2O)2Cl2]2 [Complex 5]
stability of UV-Vis absorption spectra in DMSO [1]: not modified over time

Compound: [Ni(pqx)Cl2]2 [Complex 7]
inhibition of the specific activity of lyso-PAF-AT [4]: inhibit in a dose-dependent way

inhibition of the specific activity of lyso-PAF-AT [4]: inhibit in a dose-dependent way
Compound: mer-[Cr(pqx)Cl3(H2O)] [Complex 1]
toxicity in healthy cells [2]: almost inactive (non-toxic)
